Tests used:
Teleogryllus commodus = assay: Mortality of black field cricket nymphs on treated cabbage leaf disks; format: in vivo; settings: 30 mM; after 7 days
Description: (i) Stock solutions of inhibitors and control solutions were prepared as aqueous solutions or suspensions as outlined in Table 6.1.
(ii) Mortality was assessed by commencing the study with 1st instar nymphs.
(iii) Cabbage leaf disks (5×8 mm diameter disks/treatment) were smeared with 100 μl of inhibitor or control stock solutions and allowed to dry. Disks were placed singly in 40 mm petri dishes, together with a moist cotton wool pas as water supply and a piece of fluted plastic for shelter.
(iv) Ten nymphs were placed on each disc and the dishes incubated at 25° C.
(v) Mortality was assessed daily and any dead individuals removed.

Tribolium castaneum = assay: Growth and survival of Tribolium castaneum in treated flour; format: in vivo; settings: Day 6; all dose levels
Description: Insects were cultured in cleaned, ground and sieved wholemeal flour made from organic wheat. Inhibitors from bottles of pre-weighed material were dry-mixed with the flour and residual inhibitor rinsed from bottles with a small volume of water. Rinse water was added to the flour and the mixture re-ground. The impregnated flour was transferred to a 20 mL vial and mixed thoroughly by shaking and inverting. Adults of T. castaneum were allowed to oviposit on flour, eggs were sifted from the flour and transferred one by one with a single hair to microwell tubes containing a small amount of flour. Each level of treatment was performed in triplicated using 32 wells/replicate. Assays were performed in triplicated. Cultures were incubated at 30° C. and 55% R H. After 6 days each replicate of 32 wells was combined, the larvae counted and the numbers compared with numbers in the control (no inhibitor) treatment. Larvae were classified as "small" if appreciably smaller than reference larvae, or abnormal if unusual behaviour or formation were observed (eg. twisting or twisted larvae). Test inhibitors and dose rates were the same as those used in Example 4.

[1] = system: Bovicola ovis (Hartley strain); assay: Survival of sheep lice on inhibitor treated wool; format: in vivo; settings: of 10 lice
[2] = system: Heliothis punctigens larvae; assay: Growth and survival of cotton budworm larvae fed an artificial diet; format: in vivo; settings: 10 days; for % Alive: control 70.0; for Average Laval Weight: control 165.4
Description: 1. The Haricot beans were cooked in a microwave for 40 minutes. 2. Agar was added to the hot water and stirred on a hot plate until almost boiling. 3. The haricot beans, agar mix, yeast and wheat germ was blended in an electric mixer for 3 minutes. 4. When the temperature has dropped to 60°C., the acids were added and mixed with the media. […] Inhibitor solutions or an equal volume of water were placed into sterilized glass tubes at designated concentrations. The artificial media was added to each tube (1.5 ml) using a sterile 10 ml syringe. First instar Heliothis punctigens larvae (1 larvae per tube) were added to the glass tubes and the tubes were capped. The tubes were incubated for 10 days at 25° C. The larvae were killed by placing the glass tubes at -70° C. for 24 hours, and then individually weighed. Percentage inhibition was calculated by comparison to control larvae.

L. cuprina eggs = assay: Egg hatch of L. cuprina on liver in vitro; format: in vivo, Lucilia cuprina; settings: 24 hours at 35° C., control 71
Description: L. cuprina eggs were placed on pieces of liver (0.9 g) which were then placed in individual wells of a 24-well tissue culture plate. Phosphate buffered saline (PBS, 0.1 ml) containing inhibitors at set concentrations were added to each well with 30 freshly laid and sterilised eggs of L. cuprina. The culture plate was then maintained in a sterile environment at 35° C. for 24 hours, after which time the percentage hatch was assessed.

Lucilia cuprina larvae = assay: Growth and survival of first instar sheep blowfly larvae on culture medium with inhibitor; format: in vivo; settings: for % Growth Incubation / Average Larval Weight: Table 2.3; for Average Larval Weight: control 9.08
O. surinamensis larvae = assay: Weight reduction of Oryzaephylus surinamensis larvae in treated flour; format: in vivo
Description: Insects were cultured in cleaned, ground and sieved wholemeal flour made from organic wheat. Inhibitors from bottles of pre-weighed material were dry-mixed with the flour and residual inhibitor rinsed from bottles with a small volume of water. Rinse water was added to the flour and the mixture re-ground. The impregnated flour was transferred to a 20 mL vial and mixed thoroughly by shaking and inverting.
Adults of T. castaneum were allowed to oviposit on flour, eggs were sifted from the flour and transferred one by one with a single hair to microwell tubes containing a small amount of flour. Each level of treatment was performed in triplicated using 32 wells/replicate. Assays were performed in triplicated. Cultures were incubated at 30° C. and 55% R H.
The bioassay for this insect was outlined for T. castaneum, except incubations were conducted at 32.5° C. and 70% R H. After 8 days the insects were sieved from the flour and weighed.

Ctenocephalides felis = assay: Development of cat flea eggs in dried blood diets; format: in vivo; settings: Day 16
Description: Blood was collected from the jugular vein of a five year old merino sheep that had not been treated with an ectoparasitic agent for 18 months. The blood was collected into a 100 ml plastic bottle containing 0.8 ml of heparin and was maintained at 4° C. Inhibitors were pre-weighed into sterile 5 ml plastic vials and 4.5 ml of blood added. The samples were mixed, placed at -70° C. for 24 hours, then freeze-dried. The freeze-dried samples were sieved through a stainless steel 63 micron sieve, and placed into sterile 5 ml plastic vials (0.15 g/per tube). Four flea eggs were placed into each vial, and a sheet of tissue paper fastened by an elastic band was fitted to the top of each vial. The vials were incubated at 25° C. and 70-80% R H for 6 days. Vermiculite was then added to each vial to provide a supporting medium for the fleas to pupate and the tubes incubated at 25° C. and 70-80% R H, for a further 10 days. Ten control vials and three vials of each treatment were tested.
At the conclusion of the incubation period the vials were placed at -20° C. for 24 hours to kill the fleas. The number of eggs hatched and the life-cycle state was recorded.

SMILES: O=C(O)CN(CCN(CC(=O)O)CC(=O)O)CC(=O)O [EDTA, ethylene diamine tetraacetic acid]
- Mortality (Teleogryllus commodus): 78%
- Mortality (class) (Teleogryllus commodus): High (high 41-100%)
- Larval size classification (Tribolium castaneum): small
- Number of Living Lice ([1]; Adult, 10 mM, 24 Hours at 35° C.): 2
- Number of Living Lice ([1]; Adult, 20 mM, 24 Hours at 35° C.): 1
- Number of Living Lice ([1]; Adult, third EDTA line, concentration not given, 24 Hours): 0
- Number of Living Lice ([1]; instar 1, 10 mM, 24 Hours at 35° C.): 0
- Number of Living Lice ([1]; instar 1, 20 mM, 24 Hours at 35° C.): 0
- Number of Living Lice ([1]; instar 1, third EDTA line, concentration not given, 24 Hours): 0
- Number of Living Lice ([1]; instar 2, 10 mM, 24 Hours at 35° C.): 2
- Number of Living Lice ([1]; instar 2, 20 mM, 24 Hours at 35° C.): 1
- Number of Living Lice ([1]; instar 2, third EDTA line, concentration not given, 24 Hours): 0
- Number of Living Lice ([1]; instar 3, 10 mM, 24 Hours at 35° C.): 1
- Number of Living Lice ([1]; instar 3, 20 mM, 24 Hours at 35° C.): 0
- Number of Living Lice ([1]; instar 3, third EDTA line, concentration not given, 24 Hours): 0
- % Alive ([2]; 2.5 mM): 50.0%
- Average Laval Weight ([2]; 2.5 mM): 123.6 mg
- % Alive ([2]; 5.0 mM): 33.3%
- Average Laval Weight ([2]; 5.0 mM): 9.25 mg
- % Alive ([2]; 10.0 mM): 67.0%
- Average Laval Weight ([2]; 10.0 mM): 4.75 mg
- inhibition at 2500 µM ([2]; Heliothis, 240 h, 2.5 mM, read-out: % Growth Inhibition): 25.3%
- inhibition at 5000 µM ([2]; Heliothis, 240 h, 5.0 mM, read-out: % Growth Inhibition): 94.4%
- inhibition at 10000 µM ([2]; Heliothis, 240 h, 10.0 mM): 97.1%
- % Hatch (L. cuprina eggs; 2 mM): 10%
- % Hatch (L. cuprina eggs; 5 mM): 0%
- % Hatch (L. cuprina eggs; 10 mM): 10%
- Effect on larval growth, summary in words (Lucilia cuprina larvae; Example 1, Table 1.2): effective growth inhibitors
- inhibition at 5000 µM (Lucilia cuprina larvae; Lucilia cuprina, first instar larvae, 5 mM): 84%
- % Growth Incubation (Lucilia cuprina larvae; 0.25 mM): -6.6%
- Average Larval Weight (Lucilia cuprina larvae; 0.25 mM): 9.68 10^-4 g
- % Growth Incubation (Lucilia cuprina larvae; 0.50 mM): 39.8%
- Average Larval Weight (Lucilia cuprina larvae; 0.50 mM): 5.47 10^-4 g
- % Growth Incubation (Lucilia cuprina larvae; 1.0 mM): 69.7%
- Average Larval Weight (Lucilia cuprina larvae; 1.0 mM): 2.75 10^-4 g
- % Growth Incubation (Lucilia cuprina larvae; 1.5 mM): 51.2%
- Average Larval Weight (Lucilia cuprina larvae; 1.5 mM): 4.43 10^-4 g
- % Growth Incubation (Lucilia cuprina larvae; 2.0 mM): 72.4%
- Average Larval Weight (Lucilia cuprina larvae; 2.0 mM): 2.51 10^-4 g
- Larval survival (Lucilia cuprina larvae; first instar larvae, 10 mM): All killed
- inhibition at 10000 µM (O. surinamensis larvae; 192 h, 10 mM, 8 days, relative to untreated larvae, read-out: Percentage Growth Inhibition): 32%
- inhibition at 20000 µM (O. surinamensis larvae; 192 h, 20 mM, 8 days, relative to untreated larvae, read-out: Percentage Growth Inhibition): 4%
- inhibition at 30000 µM (O. surinamensis larvae; 192 h, 30 mM, 8 days, relative to untreated larvae, read-out: Percentage Growth Inhibition): 28%
- Growth inhibition, summary in words (O. surinamensis larvae; text summary of Table 9.1): moderately effective
- Percentage of Fleas Progressing Through to Pupation (Ctenocephalides felis; 1.5625 mg in 4.5 ml of blood, control 97.5): 0%
- Percentage of Fleas Progressing Through to Pupation (Ctenocephalides felis; 3.125 mg in 4.5 ml of blood): 0%
- Percentage of Fleas Progressing Through to Pupation (Ctenocephalides felis; 6.25 mg in 4.5 ml of blood): 0%
